The values below come from patent US5565448A, “Medicament” (SmithKline Beecham Corporation, priority 1994, dated 1996).

The IC50 is the concentration that inhibits the measured activity by half. One may read the ED50 as the dose at which the effect has come halfway, by size or by number of responders.

The test system of experiment [1] is mean arterial blood pressure. As to the kind of experiment: Antihypertensive activity in conscious spontaneously hypertensive (SHR) rats. It is filed as in vivo. Conditions: Rattus norvegicus, intravenous, read-out: ED25, dose needed to reduce mean arterial pressure by 25 mm Hg. The protocol: The antihypertensive activity of the compounds is measured by their ability to reduce mean arterial blood pressure in conscious, spontaneously hypertensive (SHR) rats. The animals are prepared with indwelling vascular catheters are described above (A) for the administration of compounds and direct recording of blood pressure. After complete recovery from surgery (4-5 days), the rats are placed into retainers to which they have become accustomed. Mean arterial pressure is recorded continuously prior to and following the intravenous administration of compounds. The dose of compound needed to reduce mean arterial pressure by 25 mm Hg (ED25) is used as an estimate of potency. The ED25 for compound B is about 15mg/kg.

The test system of a further experiment is platelets. As to the kind of experiment: Inhibition of PDBu-induced serotonin release from platelets. It is filed as cell-based. An excerpt: The effect of compounds of Formula (I) in this assay is examined using the protocol in Sano, et al., J. Biol. Chem., 258:2010 (1983).
Another experiment relates to Jurkat cells. As to the kind of experiment: Inhibition of PHA and ionophore-induced IL-2 production in Jurkat cells. The class given is cell-based. Conditions: Homo sapiens, IL-2 ELISA. As to the method: IL-2 produced in response to PHA and ionophore in the absence or presence of compound B is assayed by an ELISA kit purchased from Advanced Magnetics, Cambridge, MA (Human 1L-2-specific ELISA). The procedure is described by Moriya, N., Journal of Immunoassay, 8:131 (1987) and Robb, R., Hunam, J., Methods in Enzymology: Immunochemical Techniques, Section H (G.Disagato, J. Langone, and H. vanVanakis, eds.: Academic Press, N.Y., vol. 116, p. 493. 1985).
On the technique in general: In an ELISA, binding on a coated surface is turned into a signal by an enzyme label.

The test system of experiment [2] is angiotensin II pressor response. As to the kind of experiment: Inhibition of pressor response to angiotensin II in conscious rats. The class given is in vivo. To be noted: Rattus norvegicus, intravenous, read-out: ED50, dose producing 50% inhibition of the control response to angiotensin II. The protocol: Rats are prepared with indwelling femoral arterial and venous catheters and a stomach tube (Gellai, et al., Kidney Int. 15:419, 1979). Two to three days following surgery the rats are placed in restrainers and blood pressure is continuously monitored from the arterial catheter with a pressure transducer and recorded on a polygraph. The change in mean arterial pressure in response to intravenous injections of […] angiotensin II is compared at various time points prior to and following the administration of the compounds intravenously at doses of 0.1 to 300 mg/kg. The dose of compound needed to produce 50% inhibition of the control response to angiotensin II (ED50) is used to estimate the potency of the compounds. The ED50 of compound B is about 30 mg/kg.

Experiment [3] relates to rat cerebellar granule cells. The experiment can be described thus: Inhibition of glutamate-induced neurotoxicity in rat cerebellar granule cells. It is filed as cell-based. The source says: The effect of compounds of Formula (I) in this assay is examined using the protocol in Lysko, et al, Brain Research, 499:258 (1989).
The subject of a further experiment is TNF. As to the kind of experiment: Endotoxic shock model: TNF production and survival in endotoxin-treated rats. It is filed as in vivo, rat. The source says:
6, 1991 and in Hanna, Patent Cooperation Treaty Application Number WO 90/15534, published Dec. 27, 1990.

The subject of another experiment is hindpaw inflammation. The experiment can be described thus: Adjuvant-induced arthritis in Lewis rats. It is filed as in vivo. To be noted: Rattus norvegicus, ip; AA Lewis rats, daily intraperitoneal administration; read-out: ED50, suppression of hindpaw inflammation. As to the method: Adjuvant-induced arthritis (AA) was produced in Lewis rats by a single intradermal injection of 0.75 mg of Mycobacterium butyricum in light paraffin oil, into the base of the tail. The adjuvant arthritis occurs after a delay of approximately 10 days and is characterized by inflammation of the hindpaws. In prophylatic studies, compounds were administered daily for 5 days, beginning on the sixth day after adjuvant injection. Hindpaw volumes were measured plethysmographically on days 14, 17 and 20. [formula]
Daily intraperitoneal administration of compound B to AA rats produced a marked, dose related suppression of hindpaw inflammation with an ED50 of <10 mg/kg.

The subject of another experiment is rabbit aortic strip. The experiment can be described thus: Inhibition of PDBu-induced contraction of rabbit aortic strip. It is filed as cell-based. To be noted: Oryctolagus cuniculus; PDBu as agonist. An excerpt:
The effect of compounds of Formula (I) in this assay is examined using the protocol in Ohlstein, et al., J. Pharm. Exp. Ther., 250:548 (1989), except PDBu and compound B are substituted in place of the agonist and antagonist, respectively, therein described.

For the next experiment, the system named is HIV-infected cells. As to the kind of experiment: HIV syncytial assay. To be noted: syncytial co-cultivation assay. It is filed as cell-based. As to the method: Chronically infected cells are employed as cell fusion centers in a rapid syncytial co-cultivation assay with uninfected […] target cells. Syncytia develop overnight, in contrast to the 3 to 7 days required for the cytopathic effect to occur in similar cultures infected with cell-free virus preparations. Inhibition of fusion by soluble CD4 and other potential anti-HIV compounds is assessed using the assay described by Truneh, et al., Cellular Immunology, 131:98 (1990).

As for `NC1=NC(=O)/C(=C2\CCNC(=O)c3[nH]c(Br)cc32)N1` [Compound B, 4-(2-amino-4-oxo-2-imidazolin-5-ylidene)-2-bromo-4,5,6,7-tetrahydropyrrolo(2,3-c)azepine-8-one], in experiment [1], the ED (25 mm Hg) was around 15 mg/kg. Besides, the “Inhibition of PDBu-induced serotonin release from platelets” value with platelets is recorded as “showed inhibition”. The IC50 in the experiment on Jurkat cells is around 2000 nM; in experiment [3], around 600 nM; with rabbit aortic strip it was 500 to 800 nM. Besides, the figures for the ED50 (in [2]; with hindpaw inflammation) were around 30 mg/kg and below 10 mg/kg, respectively. For the same compound, the “Inhibition of the production of TNF” value in the experiment with TNF is “inhibited the production of TNF”. Besides, in the experiment with TNF, the “Survival rate of animals with endotoxic shock” value is recorded as “increased the survival rate”. In addition, in the experiment with HIV-infected cells, the “Inhibition of fusion of HIV-infected cells to CD4-positive, uninfected cells” value is “inhibited the fusion”.
